Experimental data from PMC7979765, “trans-Translation inhibitors bind to a novel site on the ribosome and clear Neisseria gonorrhoeae in vivo” (Nature Communications, 2021).
≈ marks a conversion by molar mass, not a printed value. Where “and” joins values, the source holds several entries; their conditions need not be identical. Identical values can stand only once. Like-named read-outs stand apart in the source and are kept apart here.

Tests used:
[1] = in vitro; conditions: mouse, serum
[2] = mouse
[3] = target: T1, Monoamine Oxidase MAO-A (Homo sapiens, UniProt P21397); experiment: Receptor Profiling 140010; assay type: biochemical; conditions: negative % inhibition indicates agonism
T1 construct: Eurofins Discovery Services (contract assay) 140010
T1 sequence (P21397 whole entry): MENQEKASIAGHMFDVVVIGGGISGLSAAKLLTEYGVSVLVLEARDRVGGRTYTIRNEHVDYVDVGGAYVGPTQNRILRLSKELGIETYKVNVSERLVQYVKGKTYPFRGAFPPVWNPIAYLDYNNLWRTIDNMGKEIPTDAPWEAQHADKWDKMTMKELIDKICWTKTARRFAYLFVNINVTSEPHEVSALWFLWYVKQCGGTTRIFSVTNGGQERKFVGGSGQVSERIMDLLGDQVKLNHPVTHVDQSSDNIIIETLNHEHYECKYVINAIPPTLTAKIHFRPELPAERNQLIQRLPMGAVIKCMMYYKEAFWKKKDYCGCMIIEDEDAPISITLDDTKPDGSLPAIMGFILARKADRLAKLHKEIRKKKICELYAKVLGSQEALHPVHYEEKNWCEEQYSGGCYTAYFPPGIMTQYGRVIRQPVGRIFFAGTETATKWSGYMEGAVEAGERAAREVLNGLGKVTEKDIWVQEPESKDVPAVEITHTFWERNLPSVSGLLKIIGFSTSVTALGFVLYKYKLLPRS
Protocol: (§1) Several in vitro selectivity assays were performed at Eurofins Discovery Services using established methods and controls that behaved as expected (Supplementary Tables 5 and 6). […] For receptor panel profiling, MBX-4132 was evaluated at 10 μM and activity of >50% (agonist or antagonist; note that negative % inhibition indicates agonism) was scored as active.

[4] = system: Mycoplasma pneumoniae; experiment: MIC, microbroth dilution; assay type: cell-based
[5] = system: Legionella pneumophila; experiment: microbe, parasite or virus in culture; assay type: cell-based
[6] = system: CYP450 enzymes; experiment: CYP450 inhibition assays (panel statement); assay type: in vitro ADME, human; conditions: 5 concentrations from 30 nM to 100 μM
Protocol: as §1

[7] = target: T2, Muscarinic M1 (Homo sapiens, UniProt P11229); experiment: Receptor Profiling 252610; assay type: binding
T2 construct: purchased Eurofins Discovery Services (Panlabs safety panel)
T2 sequence (P11229 whole entry): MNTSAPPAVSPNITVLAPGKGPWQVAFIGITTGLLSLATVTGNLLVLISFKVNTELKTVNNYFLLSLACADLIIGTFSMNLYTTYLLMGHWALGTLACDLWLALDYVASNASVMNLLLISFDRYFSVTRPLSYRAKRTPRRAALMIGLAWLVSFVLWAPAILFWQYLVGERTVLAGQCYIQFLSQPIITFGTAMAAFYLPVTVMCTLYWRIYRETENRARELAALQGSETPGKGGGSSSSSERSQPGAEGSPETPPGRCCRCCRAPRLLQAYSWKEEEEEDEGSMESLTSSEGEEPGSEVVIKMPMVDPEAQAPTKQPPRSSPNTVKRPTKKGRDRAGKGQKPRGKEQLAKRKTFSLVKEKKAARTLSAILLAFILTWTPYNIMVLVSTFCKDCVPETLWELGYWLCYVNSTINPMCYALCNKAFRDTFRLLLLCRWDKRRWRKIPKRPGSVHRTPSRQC
Protocol: as §1

[8] = system: Salmonella typhimurium strains TA98 and TA100; assay type: cell-based
Protocol: The Ames assay was performed at SRI Biosciences, following the standard protocols established there[55]–[57]. In brief, samples were evaluated for their ability to induce genetic damage using the plate incorporation method with Salmonella typhimurium strains TA98 and TA100 with and without a metabolic activation mixture containing 10% Aroclar-1254-induced rat-liver microsomes (S9). MBX-4132 was tested from a 5 mg/mL DMSO stock solution (the solubility limit), which provided plate concentrations up to 500 µg/plate, with serial dilutions accessing doses as low as 5 µg/plate. MBX-4132 precipitated at the two highest dose levels (500 and 100 µg/plate), but at 50 µg/plate, no precipitation was observed. […] Test articles were considered mutagenic when the mean number of revertant colonies increased in a dose-dependent manner. Some cytotoxicity was observed, but sufficient colonies were formed to allow analysis. […] Data for 2-nitrofluorene and sodium azide (positive controls) and DMSO (negative control) were included for reference.

[9] = system: Streptococcus pneumoniae; experiment: MIC, microbroth dilution; assay type: cell-based
[10] = target: T3, Protein Tyrosine Kinase, LCK (Homo sapiens, UniProt P06239); experiment: Receptor Profiling 176020; assay type: biochemical
T3 construct: purchased Eurofins Discovery Services (Panlabs safety panel)
T3 sequence (P06239 whole entry): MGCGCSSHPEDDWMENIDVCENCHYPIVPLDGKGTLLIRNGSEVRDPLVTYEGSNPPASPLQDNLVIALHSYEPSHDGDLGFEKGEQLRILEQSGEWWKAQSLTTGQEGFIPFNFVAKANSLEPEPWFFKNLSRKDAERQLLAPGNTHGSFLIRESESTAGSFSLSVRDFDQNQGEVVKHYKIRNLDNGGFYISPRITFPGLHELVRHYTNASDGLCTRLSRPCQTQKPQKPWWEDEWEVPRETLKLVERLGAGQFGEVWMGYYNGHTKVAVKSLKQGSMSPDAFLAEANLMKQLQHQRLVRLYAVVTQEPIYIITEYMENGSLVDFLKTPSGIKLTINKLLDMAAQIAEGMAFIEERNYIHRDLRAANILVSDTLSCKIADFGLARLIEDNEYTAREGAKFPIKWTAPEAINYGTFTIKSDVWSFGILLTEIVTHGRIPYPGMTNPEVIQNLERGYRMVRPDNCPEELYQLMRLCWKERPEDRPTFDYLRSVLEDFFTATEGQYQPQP
Protocol: as §1

[11] = Liver microsome stability, rat; assay type: in vitro ADME
Protocol: To examine potential for first-pass metabolism of analogs in the liver, the stability of analogs in the presence of liver microsome preparations (Eurofins Discovery for human, dog and rat; Xenotech for mouse) was measured using the method of Kuhnz, et al.[50]. for murine studies and Oback for the dog, human and rat studies. The amount of parent compound remaining after incubation with microsomes in the presence of NADPH over a 30 min time range was measured using a reverse-phase liquid chromatography/mass spectroscopy method that was customized for each compound. Half-lives were calculated using linear regression analysis of several time points.

[12] = target: T4, Adenosine A2A (Homo sapiens, UniProt P29274); experiment: Receptor Profiling 200610; assay type: binding
T4 construct: purchased Eurofins Discovery Services (Panlabs safety panel)
T4 sequence (P29274 whole entry): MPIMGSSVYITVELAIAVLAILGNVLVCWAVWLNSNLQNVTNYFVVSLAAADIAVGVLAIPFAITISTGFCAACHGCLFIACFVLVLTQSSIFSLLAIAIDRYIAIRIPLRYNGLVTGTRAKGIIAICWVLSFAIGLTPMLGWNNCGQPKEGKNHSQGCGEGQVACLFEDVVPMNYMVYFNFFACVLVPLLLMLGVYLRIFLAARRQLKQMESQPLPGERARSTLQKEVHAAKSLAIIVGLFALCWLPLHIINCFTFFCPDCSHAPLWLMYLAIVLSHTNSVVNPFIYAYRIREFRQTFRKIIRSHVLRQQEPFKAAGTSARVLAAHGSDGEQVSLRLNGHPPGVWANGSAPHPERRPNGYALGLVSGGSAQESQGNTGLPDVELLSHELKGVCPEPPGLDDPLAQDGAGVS
Protocol: as §1

O=C(Nc1nnc(-c2ccc(F)cc2)o1)N1CCc2ccccc2C1 [MBX-4132]
remaining at 1 h ([1]; Murine serum stability (% remaining after 1 hr)): 109% | remaining at 1 h ([1]; Murine serum stability (% remaining after 1 hr), Replicate 1/2, MBX): 92.6% | remaining at 1 h ([1]; Murine serum stability (% remaining after 1 hr), Reported value, MBX): > 99.8% | remaining at 1 h ([1]; serum stability, % remaining after 1 h, murine serum, 1 h incubation at 37 °C): > 99.8% | Murine serum stability (% remaining after 1 hr) [2]: 101% | inhibition at 10 µM [3]: -108% | MIC ([4]; Mycoplasma pneumoniae ATCC 15531, replicates): ≥34 µg/mL | MIC ([4]; Mycoplasma, ATCC15531, strain ATCC 15531, read-out: MIC): ≥ 34 µg/mL | MIC ([5]; Legionella pneumophila ATCC 33153, replicates): 8.50 µg/mL (≈ 25.1 µM) | MIC ([5]; Legionella pneumophila, ATCC33153): 8.5 µg/mL (≈ 25.1 µM) | CYP450 inhibitory activity (in words) [6]: no inhibitory activity >50% | inhibition at 10 µM [7]: -7% | Average Mean Revertants/plate ([8]; TA98, 1 µg/plate, + S9): 23.5 Revertants/plate | Average Mean Revertants/plate ([8]; TA98, 1 µg/plate, no S9): 21.5 Revertants/plate | Mean Revertants/plate ([8]; TA98, 1 µg/plate, no S9, replicates): 23 Revertants/plate and 20 Revertants/plate | Average Mean Revertants/plate ([8]; TA98, 5 µg/plate, + S9): 22 Revertants/plate | Average Mean Revertants/plate ([8]; TA98, 5 µg/plate, no S9): 17.0 Revertants/plate | Mean Revertants/plate ([8]; TA98, 5 µg/plate, no S9, replicates): 18 Revertants/plate and 16 Revertants/plate | Average Mean Revertants/plate ([8]; TA98, 10 µg/plate, + S9): 21 Revertants/plate | Average Mean Revertants/plate ([8]; TA98, 10 µg/plate, no S9): 15.0 Revertants/plate | Mean Revertants/plate ([8]; TA98, 10 µg/plate, no S9, replicates): 14 Revertants/plate and 16 Revertants/plate | Average Mean Revertants/plate ([8]; TA98, 50 µg/plate, + S9): 18.5 Revertants/plate | Average Mean Revertants/plate ([8]; TA98, 50 µg/plate, no S9): 20.0 Revertants/plate | Mean Revertants/plate ([8]; TA98, 50 µg/plate, no S9, replicates): 18 Revertants/plate and 22 Revertants/plate | Average Mean Revertants/plate ([8]; TA98, 100 µg/plate, + S9): 17.5 Revertants/plate | Average Mean Revertants/plate ([8]; TA98, 100 µg/plate, no S9): 20.0 Revertants/plate | Mean Revertants/plate ([8]; TA98, 100 µg/plate, no S9, replicates): 18 Revertants/plate and 22 Revertants/plate | Average Mean Revertants/plate ([8]; TA98, 500 µg/plate, + S9): 20 Revertants/plate | Average Mean Revertants/plate ([8]; TA98, 500 µg/plate, no S9): 17.5 Revertants/plate | Mean Revertants/plate ([8]; TA98, 500 µg/plate, no S9, replicates): 19 Revertants/plate and 16 Revertants/plate | Mean Revertants/plate ([8]; TA98, + S9, 1 µg/plate): 23.5 | Mean Revertants/plate ([8]; TA98, + S9, 5 µg/plate): 22.0 | Mean Revertants/plate ([8]; TA98, + S9, 10 µg/plate): 21.0 | Mean Revertants/plate ([8]; TA98, + S9, 50 µg/plate): 18.5 | Mean Revertants/plate ([8]; TA98, + S9, 100 µg/plate): 17.5 | Mean Revertants/plate ([8]; TA98, + S9, 500 µg/plate): 20.0 | Mean Revertants/plate ([8]; TA98, without S9, 1 µg/plate): 21.5 | Mean Revertants/plate ([8]; TA98, without S9, 5 µg/plate): 17.0 | Mean Revertants/plate ([8]; TA98, without S9, 10 µg/plate): 15.0 | Mean Revertants/plate ([8]; TA98, without S9, 50 µg/plate): 20.0 | Mean Revertants/plate ([8]; TA98, without S9, 100 µg/plate): 20.0 | Mean Revertants/plate ([8]; TA98, without S9, 500 µg/plate): 17.5 | revertant colonies vs DMSO control (in words) ([8]; TA98 and TA100, with and without S9, any concentration tested): no significant deviation | Average Mean Revertants/plate ([8]; TA100, 1 µg/plate, + S9): 107.5 Revertants/plate | Average Mean Revertants/plate ([8]; TA100, 1 µg/plate, no S9): 112.5 Revertants/plate | Mean Revertants/plate ([8]; TA100, 1 µg/plate, no S9, replicates): 108 Revertants/plate and 117 Revertants/plate | Average Mean Revertants/plate ([8]; TA100, 5 µg/plate, + S9): 125.5 Revertants/plate | Average Mean Revertants/plate ([8]; TA100, 5 µg/plate, no S9): 99.0 Revertants/plate | Mean Revertants/plate ([8]; TA100, 5 µg/plate, no S9, replicates): 98 Revertants/plate and 100 Revertants/plate | Average Mean Revertants/plate ([8]; TA100, 10 µg/plate, + S9): 102 Revertants/plate | Average Mean Revertants/plate ([8]; TA100, 10 µg/plate, no S9): 97.0 Revertants/plate | Mean Revertants/plate ([8]; TA100, 10 µg/plate, no S9, replicates): 94 Revertants/plate and 100 Revertants/plate | Average Mean Revertants/plate ([8]; TA100, 50 µg/plate, + S9): 71 Revertants/plate | Average Mean Revertants/plate ([8]; TA100, 50 µg/plate, no S9): 73.0 Revertants/plate | Mean Revertants/plate ([8]; TA100, 50 µg/plate, no S9, replicates): 79 Revertants/plate and 67 Revertants/plate | Average Mean Revertants/plate ([8]; TA100, 100 µg/plate, + S9): 43 Revertants/plate | Average Mean Revertants/plate ([8]; TA100, 100 µg/plate, no S9): 54.0 Revertants/plate | Mean Revertants/plate ([8]; TA100, 100 µg/plate, no S9, replicates): 55 Revertants/plate and 53 Revertants/plate | Average Mean Revertants/plate ([8]; TA100, 500 µg/plate, + S9): 19.5 Revertants/plate | Average Mean Revertants/plate ([8]; TA100, 500 µg/plate, no S9): 35.5 Revertants/plate | Mean Revertants/plate ([8]; TA100, 500 µg/plate, no S9, replicates): 38 Revertants/plate and 33 Revertants/plate | Mean Revertants/plate ([8]; TA100, + S9, 1 µg/plate): 107.5 | Mean Revertants/plate ([8]; TA100, + S9, 5 µg/plate): 125.5 | Mean Revertants/plate ([8]; TA100, + S9, 10 µg/plate): 102.0 | Mean Revertants/plate ([8]; TA100, + S9, 50 µg/plate): 71.0 | Mean Revertants/plate ([8]; TA100, + S9, 100 µg/plate): 43.0 | Mean Revertants/plate ([8]; TA100, + S9, 500 µg/plate): 19.5 | Mean Revertants/plate ([8]; TA100, without S9, 1 µg/plate): 112.5 | Mean Revertants/plate ([8]; TA100, without S9, 5 µg/plate): 99.0 | Mean Revertants/plate ([8]; TA100, without S9, 10 µg/plate): 97.0 | Mean Revertants/plate ([8]; TA100, without S9, 50 µg/plate): 73.0 | Mean Revertants/plate ([8]; TA100, without S9, 100 µg/plate): 54.0 | Mean Revertants/plate ([8]; TA100, without S9, 500 µg/plate): 35.5 | MIC ([9]; Streptococcus pneumoniae ATCC 49619, replicates): 34 µg/mL (≈ 100 µM) | MIC ([9]; Streptococcus pneumoniae, ATCC49619, strain ATCC 49619, read-out: MIC): 34 µg/mL (≈ 100 µM) | inhibition at 10 µM [10]: 29% | Microsomal stability (t½, min) Rat ([11]; Reported value, Eurofins): >120 min | half-life ([11]; rat, liver microsomes, read-out: Microsomal Stability (t1/2; min) Rat): > 2 h | inhibition at 10 µM [12]: 42%
